Experiments:
type I collagen mRNA = conditions: human dermal fibroblasts; cited from earlier work
[1] = test system: patients with scleredema diabeticorum; test: Clinical oral treatment of patients with scleredema diabeticorum, skin thickness by B-ultrasound; format: in vivo, human; conditions: for skin thickness measured by B-ultrasound: back skin
Source text: FIG. 1 is a B-ultrasonography of a patient before medication (a and b are different parts of the affected skin).
1. Mode of administration: oral, tranilast 0.1 g, 3 times a day, every 3 months for a course of treatment, a total of two courses.

[2] = test system: IgE antibody-induced cutaneous anaphylaxis; conditions: rats; cited from earlier work
experimental asthma = conditions: rats; cited from earlier work
fibroblast = test: Secretion and synthesis of mucin by fibroblast; format: cell-based; conditions: initially found
[3] = 3 patients, tranilast capsule 0.1, 3 times a day orally, after 3 months
[4] = patients with scleredema diabeticorum, after 3 months of application

For `COc1ccc(/C=C/C(=O)Nc2ccccc2C(=O)O)cc1OC` [tranilast], the “TGF-β-induced upregulation of type I collagen mRNA expression and basal level of type I collagen mRNA” value (type I collagen mRNA) is given as “able to suppress”, the local skin erythema [1, 3] is given as “subsided significantly” and the “uncomfortable symptom of conscious hardening” value [1, 3] is given as “significantly relieved”. The “therapeutic effect on scleredema diabeticorum” value ([1]; clinical results) was “good therapeutic effect”, the “skin thickness measured by B-ultrasound” value ([1]; patient Example 1, person, after 3 months of oral administration, before 6.5 mm) was 6 mm and the “skin thickness measured by B-ultrasound” value ([1]; patient Example 2, person, 0.1 three times a day, after 3 months, before 8 mm) was 6 mm. The “skin thickness measured by B-ultrasound” value ([1]; patient Example 3, person, 0.1 three times a day, after 3 months, before 8.5 mm) was 5.9 mm, the “thickness of the surrounding skin (B-ultrasonography)” value ([1]; patient, after 3 months of medication, before medication 3.6 mm) was 3.0 mm and the “thickness of the thickest part of skin on the right side (back of the neck, B-ultrasonography)” value ([1]; patient, after 3 months of medication, before medication about 7.5 mm) was “about 6.3 mm”. The “thickness of the thickest part of the skin on the left side (back of the neck, B-ultrasonography)” value ([1]; patient, after 3 months of medication, before medication about 8.7 mm) was “about 6.8 mm”, the “reduction of maximum skin thickness (B-ultrasound)” value ([1]; patient, after 3 months of treatment, before treatment 7.8 to 8.7 mm) was 2 mm and the adverse reactions [1, 4] was “no significant adverse reactions were observed”. For the same molecule, the “symptoms in clinical practice” value [1, 4] was “significantly relieved”, the “thickness of the skin detected by B-ultrasound” value [1, 4] was “significantly thinner” and the “skin change in further treated cases” value ([1]; several further cases) was “skin thinning”. The “blood routine examination, routine urine examination, and biochemical detection” value ([1]; tranilast capsule 0.1, 3 times a day orally, 3 months) was “no obvious abnormalities”, the “effect on IgE antibody-induced cutaneous anaphylaxis” value [2] was “significant inhibitory effect” and the “effect on experimental asthma” value (experimental asthma) was “significant inhibitory effect”. The “secretion and synthesis of mucin by fibroblast” value (fibroblast) was “inhibiting”.

From patent US20180311194A1, “APPLICATION OF TRANILAST IN PREPARATION OF DRUG TREATING SCLEREDEMA DIABETICORUM” (THE FIRST AFFILIATED HOSPITAL OF NANJING MEDICAL UNIVERSITY, priority 2016, published 2018)
